Reference: patent US20240299334A1, “PHARMACEUTICAL COMPOSITION OF NAPHTHALENE DERIVATIVES AS MULTI-TARGETED THERAPEUTIC AGENTS FOR THE TREATMENT OF ALZHEIMER'S DISEASE” (CENTRO DE NEUROCIENCIAS DE CUBA, CNEURO, priority 2020, published 2024)

Legend:
[1] = system: memory loss induced by an acute administration of scopolamine (ESC); assay: Morris water maze, two-day protocol, acute ESC model; assay type: in vivo, mice; details: long-term spatial memory
Protocol: Young male OF-1 mice (20-25 g), supplied by the National Center for the Laboratory Animals Production (CENPALAB, Cuba), were used. Before the experiment, the animals were adapted for seven days to laboratory conditions (controlled temperature 25±2° C., relative humidity 60±10% and light/dark cycles of 12 h). During this period, and during the experiment, the animals received ad libitum water and a standard diet for rodents supplied by CENPALAB. All procedures were carried out in accordance with the European Commission guidelines for the use and care of laboratory animals and approved by the Committee for the Care of Research Animals. The minimum number of animals and duration of observations required to obtain consistent data was used.
At the end of the adaptation period, the animals were randomly distributed according to their body weights in 5 experimental groups of 12 animals per group. […]
The experience was carried out for two days; a first day of training and a second day of testing. […] 24 hours after the last visible platform test (D2), the animals were evaluated in a series of three tests with the hidden platform (T1-T3). […]
All data are expressed as the mean±standard error of the mean (SEM). The Morris water maze data was analyzed in two ways. Escape latencies in the visible platform training phase were analyzed using a two-factor ANOVA (treatment×trial). […]

SH-SY5Y cells = assay: Neuroprotection against glutamate-induced excitotoxic damage (MTT); details: 7.5 and 15 μmol/L; 24 h pre-treatment, then 60 mmol/L glutamate 24 h; p<0.05
Protocol: In addition, gentamicin (100 μg/mL) was added, then called complete medium (CM). […] The medium was changed every two days and the cells were subcultured every five days by trypsinization at a density of 4-5×10^6 cells/75 cm^2 flask for experimental work and/or subculture of a new generation of cells for later use.
Once the cell density was known, they were seeded in a 96-well culture plate (200 μL in each well) at a concentration of 80×10^4 cells/well.
Cell viability. MTT assays: Cell viability was measured through formazan blue products obtained from the enzymatic transformation of MTT (3-(4,5-dimethyl-2-thiazolyl)-2,5-diphenyl-2Htetrazoliumbromide) by mitochondrial dehydrogenases, which are active only in viable cells. […] Then 100 μL of isobutylalcohol (SDS 10%, 2-butanol 50%, 0.25 μL HCl 2 mmol/L) was added to each well to solubilize the formazan crystals, and the optical density of each well was measured before 30 minutes at 570 nm in a Clariostar spectrophotometer (BMG Labtech). The correction of the OD values was carried out at 690 nm. Three replications were carried out for each experiment. The results were expressed as the percentage of optical density of each experimental variant in relation to the Optical density obtained for the group of cells not treated with glutamate.

[2] = system: memory loss induced with the chronic use of scopolamine; assay: Morris water maze, chronic ESC model; assay type: in vivo, mice
Protocol: Male C57BL/6 mice (20-25 g), supplied by the National Center for the Laboratory Animals Production (CENPALAB, Cuba) were used. During the experiment, the animals received adlibitum water and standard diet supplied by CENPALAB. All procedures were carried out in accordance with the European Commission guidelines for the use and care of laboratory animals and approved by the Committee for the Research Animals Care. The minimum number of animals and duration of observations required to obtain consistent data was used.
At the end of the adaptation period, the animals were randomly distributed according to their body weights in five experimental groups of 12 animals each. For the induction of cognitive deficit, ESC (Sigma Aldrich) was used, which was dissolved in physiological saline and administered daily intraperitoneally (ip) at a dose of 1.5 mg/kg for 2 weeks, in the morning (Park J H, et al. In J Mol Neurosci. 2016; 59 (4): 579-589). Compound 3 was prepared as a suspension, in 0.5% soluble starch (Merck Millipore), and administered orally by intragastric cannula at a daily dose of 0.1, 1, 10 mg/kg of body weight […]. The experimental groups were: […]
Morris Water Maze (MWM): Analogous to Example 2, the two-day MWM test was used to determine long-term spatial memory. […] In this way, long-term spatial memory was determined by the quotient of the escape latency values D2T1/D1V6. […]

## CSC(=S)NCCNC(=O)CCC(=O)Nc1cccc2ccccc12 [compound 3, methyl(2-{[4-(1-naphthylamino)-4-oxobutanoyl]amino}ethyl)dithiocarbamate]
[1]
  difference and ratio of escape latency, last visible-platform test vs first hidden-platform test: differs significantly from the group with ESC
SH-SY5Y cells
  neuronal death generated by glutamate (MTT viability): significantly decreased
[2]; MWM, chronic ESC model
  maximum effect dose: 1 mg/kg
[2]; compound 3 1 and 10 mg/kg oral daily, ESC 1.5 mg/kg daily, 2 weeks
  ratio of first escape latency with hidden platform (T7) and last test with visible platform (T6): significantly decreased compared to the ESC group
